Assay results reported in US5601801A, “Radiolabelled angiotensin converting enzyme inhibitors” (Merck Frosst Canada, Inc., priority 1994, dated 1997).
Like-named read-outs stand apart in the source and are kept apart here.

Assays:
[1] = Imaging of a New Zealand White Rabbit with ^131 I-3; assay type: in vivo; settings: intravenous ear injection
Source text: It was thought that this small intestine uptake could be due to a difference in mouse ACE or in its distribution as compared to human ACE. It was decided to carry out this imaging experiment in a rabbit since rabbit ACE is believed to be similar to human ACE. It should be noted that it was rabbit ACE which was used in the IC50 assay.
^131 I-3 prepared as described above was taken up in phosphate buffered saline, the solution was filtered through a 0.2μ Millipore filter, and was introduced into the rabbit by intravenous ear injection followed by imaging of the rabbit.

[2] = Biodistribution of ^131 I-3 in CD-1 Mice, normal and blocked with lisinopril; assay type: in vivo; settings: for tissue uptake at 0.5 h / tissue uptake at 1.5 h / tissue uptake at 3 h / tissue uptake at 6 h: iv, 1 uCi
Description: It is well known that there are high ACE concentrations in the lungs, kidneys, pre-optic region of the brain and the blood.^4 Localization of the radioactivity in these organs was expected. […] A blocking study was undertaken to differentiate between specific and non-specific binding.
^131 I-3 was prepared as described above and used in this experiment. The experiment was carried out using male CD-1 mice. The mice were fasted 15 hours prior to injection with 1 μCi of ^131 I-3 by bolus injection into the lateral tail vein. At various times following the dosing, selected mice were sacrificed, exsanguinated and dissected. The desired organs were rinsed, blotted, weighed and counted. For the blocking experiment, mice were treated with 10 μg of lisinopril (by bolus injection into the lateral tail vein) 5 minutes before injection of ^131 I-3.
This blocking experiment was an attempt to differentiate between specific and non-specific binding. […] This is illustrated by the dramatic decrease in radioactivity present in these organs in the blocked biodistribution as compared to the normal biodistribution. […] The anomaly of the first time point has yet to be explained.

[3] = mouse, blood, blocked (lisinopril), read-out: Biodistribution, Blood
[4] = mouse, blood, normal (not blocked), read-out: Biodistribution, Blood
[5] = mouse, contents, blocked (lisinopril), read-out: Biodistribution, Contents
[6] = mouse, contents, normal (not blocked), read-out: Biodistribution, Contents
[7] = mouse, fat, blocked (lisinopril), read-out: Biodistribution, Fat
[8] = mouse, fat, normal (not blocked), read-out: Biodistribution, Fat
[9] = mouse, kidney, blocked (lisinopril), read-out: Biodistribution, Kidney
[10] = mouse, kidney, normal (not blocked), read-out: Biodistribution, Kidney
[11] = mouse, large intestine, blocked (lisinopril), read-out: Biodistribution, lg. Intest.
[12] = mouse, large intestine, normal (not blocked), read-out: Biodistribution, lg. Intest.
[13] = mouse, liver, blocked (lisinopril), read-out: Biodistribution, Liver
[14] = mouse, liver, normal (not blocked), read-out: Biodistribution, Liver
[15] = mouse, lung, blocked (lisinopril), read-out: Biodistribution, Lung
[16] = mouse, lung, normal (not blocked), read-out: Biodistribution, Lung
[17] = mouse, muscle, blocked (lisinopril), read-out: Biodistribution, Muscle
[18] = mouse, muscle, normal (not blocked), read-out: Biodistribution, Muscle
[19] = mouse, small intestine, blocked (lisinopril), read-out: Biodistribution, Sm. Intest.
[20] = mouse, small intestine, normal (not blocked), read-out: Biodistribution, Sm. Intest.
[21] = mouse, stomach, blocked (lisinopril), read-out: Biodistribution, Stomach
[22] = mouse, stomach, normal (not blocked), read-out: Biodistribution, Stomach

## O=C(NCCCC[C@H](N[C@@H](CCc1ccccc1)C(=O)O)C(=O)N1CCC[C@H]1C(=O)O)c1cccc([131I])c1 [^131 I-3, Lisinopril N^ε -radioiodobezamide]
[1]
  organs imaged: clearly show the lungs and kidneys at early time points, as well as in the bladder at later time points
[2]; 0.5 hours, pre-injection with lisinopril
  kidney uptake, blocked vs normal: slight increase (or no change)
[2]; blocking experiment
  nature of uptake in kidney, lung and small intestine: due to specific binding
[2]; early time points
  uptake in kidneys and lungs: uptake in the kidneys and lungs at early time points
[2]; mouse, blood, 0.5 hours, blocked (lisinopril), read-out: Biodistribution, Blood
  tissue uptake at 0.5 h: 6 %ID/g
[2]; mouse, blood, 0.5 hours, normal (not blocked), read-out: Biodistribution, Blood
  tissue uptake at 0.5 h: 5.9 %ID/g
[2]; [3]
  tissue uptake at 1.5 h: 3.2 %ID/g
  tissue uptake at 3 h: 1.3 %ID/g
  tissue uptake at 6 h: 0.9 %ID/g
[2]; [4]
  tissue uptake at 1.5 h: 3.2 %ID/g
  tissue uptake at 3 h: 3.1 %ID/g
  tissue uptake at 6 h: 1 %ID/g
[2]; mouse, contents, 0.5 hours, blocked (lisinopril), read-out: Biodistribution, Contents
  tissue uptake at 0.5 h: 17.9 %ID/g
[2]; mouse, contents, 0.5 hours, normal (not blocked), read-out: Biodistribution, Contents
  tissue uptake at 0.5 h: 21.4 %ID/g
[2]; [5]
  tissue uptake at 1.5 h: 28.5 %ID/g
  tissue uptake at 3 h: 15 %ID/g
  tissue uptake at 6 h: 48.9 %ID/g
[2]; [6]
  tissue uptake at 1.5 h: 22.1 %ID/g
  tissue uptake at 3 h: 21.4 %ID/g
  tissue uptake at 6 h: 65.9 %ID/g
[2]; mouse, fat, 0.5 hours, blocked (lisinopril), read-out: Biodistribution, Fat
  tissue uptake at 0.5 h: 0.6 %ID/g
[2]; mouse, fat, 0.5 hours, normal (not blocked), read-out: Biodistribution, Fat
  tissue uptake at 0.5 h: 0.7 %ID/g
[2]; [7]
  tissue uptake at 1.5 h: 0.5 %ID/g
  tissue uptake at 3 h: 0.2 %ID/g
  tissue uptake at 6 h: 0.1 %ID/g
[2]; [8]
  tissue uptake at 1.5 h: 0.8 %ID/g
  tissue uptake at 3 h: 0.4 %ID/g
  tissue uptake at 6 h: 0.2 %ID/g
[2]; mouse, in vivo
  clearance from small intestine: quite slow clearance
  clearance from the lungs: rapid clearance from the lungs
  uptake in the small intestine: High uptake in the small intestine
[2]; mouse, kidney, 0.5 hours, blocked (lisinopril), read-out: Biodistribution, Kidney
  tissue uptake at 0.5 h: 9.8 %ID/g
[2]; mouse, kidney, 0.5 hours, normal (not blocked), read-out: Biodistribution, Kidney
  tissue uptake at 0.5 h: 7.1 %ID/g
[2]; [9]
  tissue uptake at 1.5 h: 2.4 %ID/g
  tissue uptake at 3 h: 1.4 %ID/g
  tissue uptake at 6 h: 0.5 %ID/g
[2]; [10]
  tissue uptake at 1.5 h: 7.1 %ID/g
  tissue uptake at 3 h: 6.9 %ID/g
  tissue uptake at 6 h: 9.6 %ID/g
[2]; mouse, large intestine, 0.5 hours, blocked (lisinopril), read-out: Biodistribution, lg. Intest.
  tissue uptake at 0.5 h: 1.1 %ID/g
[2]; mouse, large intestine, 0.5 hours, normal (not blocked), read-out: Biodistribution, lg. Intest.
  tissue uptake at 0.5 h: 1.5 %ID/g
[2]; [11]
  tissue uptake at 1.5 h: 1.4 %ID/g
  tissue uptake at 3 h: 13.4 %ID/g
  tissue uptake at 6 h: 14.6 %ID/g
[2]; [12]
  tissue uptake at 1.5 h: 1.1 %ID/g
  tissue uptake at 3 h: 2.6 %ID/g
  tissue uptake at 6 h: 18.6 %ID/g
[2]; mouse, liver, 0.5 hours, blocked (lisinopril), read-out: Biodistribution, Liver
  tissue uptake at 0.5 h: 7.6 %ID/g
[2]; mouse, liver, 0.5 hours, normal (not blocked), read-out: Biodistribution, Liver
  tissue uptake at 0.5 h: 7.2 %ID/g
[2]; [13]
  tissue uptake at 1.5 h: 1.4 %ID/g
  tissue uptake at 3 h: 1.9 %ID/g
  tissue uptake at 6 h: 0.3 %ID/g
[2]; [14]
  tissue uptake at 1.5 h: 4.9 %ID/g
  tissue uptake at 3 h: 3.8 %ID/g
  tissue uptake at 6 h: 0.8 %ID/g
[2]; mouse, lung, 0.5 hours, blocked (lisinopril), read-out: Biodistribution, Lung
  tissue uptake at 0.5 h: 1 %ID/g
[2]; mouse, lung, 0.5 hours, normal (not blocked), read-out: Biodistribution, Lung
  tissue uptake at 0.5 h: 4.8 %ID/g
[2]; [15]
  tissue uptake at 1.5 h: 0.6 %ID/g
  tissue uptake at 3 h: 0.5 %ID/g
  tissue uptake at 6 h: 0.3 %ID/g
[2]; [16]
  tissue uptake at 1.5 h: 1.8 %ID/g
  tissue uptake at 3 h: 1.7 %ID/g
  tissue uptake at 6 h: 0.5 %ID/g
[2]; mouse, muscle, 0.5 hours, blocked (lisinopril), read-out: Biodistribution, Muscle
  tissue uptake at 0.5 h: 1.1 %ID/g
[2]; mouse, muscle, 0.5 hours, normal (not blocked), read-out: Biodistribution, Muscle
  tissue uptake at 0.5 h: 1.1 %ID/g
[2]; [17]
  tissue uptake at 1.5 h: 0.4 %ID/g
  tissue uptake at 3 h: 0.3 %ID/g
  tissue uptake at 6 h: 0.2 %ID/g
[2]; [18]
  tissue uptake at 1.5 h: 0.8 %ID/g
  tissue uptake at 3 h: 0.6 %ID/g
  tissue uptake at 6 h: 0.3 %ID/g
[2]; mouse, small intestine, 0.5 hours, blocked (lisinopril), read-out: Biodistribution, Sm. Intest.
  tissue uptake at 0.5 h: 19.8 %ID/g
[2]; mouse, small intestine, 0.5 hours, normal (not blocked), read-out: Biodistribution, Sm. Intest.
  tissue uptake at 0.5 h: 31.9 %ID/g
[2]; [19]
  tissue uptake at 1.5 h: 21.7 %ID/g
  tissue uptake at 3 h: 14.2 %ID/g
  tissue uptake at 6 h: 1.2 %ID/g
[2]; [20]
  tissue uptake at 1.5 h: 27 %ID/g
  tissue uptake at 3 h: 27 %ID/g
  tissue uptake at 6 h: 20.1 %ID/g
[2]; mouse, stomach, 0.5 hours, blocked (lisinopril), read-out: Biodistribution, Stomach
  tissue uptake at 0.5 h: 24.2 %ID/g
[2]; mouse, stomach, 0.5 hours, normal (not blocked), read-out: Biodistribution, Stomach
  tissue uptake at 0.5 h: 25.1 %ID/g
[2]; [21]
  tissue uptake at 1.5 h: 13.3 %ID/g
  tissue uptake at 3 h: 12.8 %ID/g
  tissue uptake at 6 h: 4.2 %ID/g
[2]; [22]
  tissue uptake at 1.5 h: 28.7 %ID/g
  tissue uptake at 3 h: 14.2 %ID/g
  tissue uptake at 6 h: 5.1 %ID/g
[2]; pre-injection with lisinopril
  blocking of uptake in kidney and small intestine: effectively blocked at all time points
  uptake in all other organs, blocked vs normal: no difference in uptake between the normal and blocked biodistributions
